Reference: patent US20240114902A1, “COMPOSITIONS AND METHODS FOR DETERRING OVIPOSITION BY FRUIT FLIES” (The United States of America, as represented by The …, priority 2022, published 2024)

Columns and labels:
Assay type in all cases: in vivo
Drosophila suzukii (SWD) [1] = assay: SWD laboratory two-choice oviposition bioassay on raspberries; design: key to Behavioral activity (SWD oviposition group): Negative: “SWD negative” compounds (i.e., SWD oviposition was reduced); Neutral: “SWD neutral” compounds (i.e., no effect on oviposition); details: for Behavioral activity (SWD oviposition group): individual CFA component; for Behavioral activity (SWD oviposition group) / effect on SWD oviposition vs control / eggs oviposited among all treated raspberries: two-choice; for reduced SWD oviposition / SWD oviposition deterrence / effect on SWD oviposition vs control / eggs oviposited among all treated raspberries: individual compound; for reduced SWD oviposition: 0.2 mg dose; for SWD oviposition deterrence: 2 mg dose; for effect on SWD oviposition vs control / eggs oviposited among all treated raspberries: 20 mg dose
Experimental: Laboratory choice test 1 Oviposition bioassays were conducted at USDA-ARS in Hilo, Hawaii using a laboratory two-choice cage experimental set-up with organic raspberries purchased from a local grocery as an oviposition substrate. For all laboratory assays listed below, the receptacles of the raspberries were stuffed with cotton to prevent flies from ovipositing on the interior of the fruit as described previously in Cha D H et al. (2021, supra). The two-choice oviposition bioassay was conducted over 24 hours in screened cages (30 cm W×30 cm L×30 cm H; BugDorm-2120 Insect tent; shop.bugdorm.com) with 30 female and 10 male SWD (7-8 days old) released per cage. Each cage was provided with cotton moistened with water in a 20 mL deli cup and two 30 mL deli cups; one with two raspberries treated with CFA diluted in hexane and the other with two raspberries treated with hexane only. Each raspberry was surface-treated either with 200 μL of hexane or 200 μL of CFA in one of three doses (20, 2, or 0.2 mg CFA/200 μL hexane), placed into a fume hood for 10 minutes or until used in the bioassay. The deli cups with the treated berries were positioned in the center of the floor of the screened cage, 17 cm apart from each other. Female flies were allowed to oviposit on the surface of raspberries for 24 hours. At the conclusion of the bioassay, each 30 mL deli cup containing two raspberries was moved into a 600 mL deli cup with a mesh cap, held for 8 days (22.1±1.9° C., 71.7±3.1% RH, 16:8 L:D), when the number of larvae and pupae were counted. The experiment was replicated four times per treatment. Laboratory choice test 2 A series of bioassays were conducted in Hilo, Hawaii to identify key bioactive deterrent components of CFA for SWD using the same two-choice bioassay described above. […] Due to solubility differences, ethanol was used as control and for dilution of C16:0 and C18:0, while hexane was used as control and for dilution of the other six compounds tested. Based on the outcome of these bioassays, the eight free fatty acid components of CFA were grouped into two groups; “SWD negative” compounds (i.e., SWD oviposition was reduced) and “SWD neutral” compounds (i.e., no effect on oviposition), and tested whether the blend of “SWD negative” compounds had the same oviposition deterrence as the CFA at their equivalent concentrations as in CFA (see Table 2). The oviposition deterrence of the blend of “SWD negative” compounds was first compared to hexane at three different doses (20, 2 and 0.2 mg CFA equivalent/raspberry) and subsequently compared to CFA at 2 mg equivalent dose.

Drosophila suzukii (SWD) [2] = assay: SWD laboratory no-choice oviposition test on raspberries; details: 20 mg CFA or 20 mg CFA equivalent dose, 24 hours
Experimental: Laboratory no-choice test The oviposition deterrence of the key-component blend determined from the “Laboratory choice test 2” described above (2c blend composed of C8:0 and C10:0; Table 2) was tested using a no-choice bioassay in Geneva, New York, USA using organic raspberries purchased from a local grocery and using 30 cm×30 cm×30 cm screened cages as described above. Each cage held four raspberries on a 10 cm diameter glass petri dish lined with filter paper and assigned to one of five treatments: 1) 20 mg of CFA/200 μL hexane/raspberry, 2) C8:0 at 20 mg CFA equivalent dose/200 μL hexane/raspberry, 3) C10:0 at 20 mg CFA equivalent dose/200 μL hexane/raspberry, 4) 2c blend at 20 mg CFA equivalent dose/200 μL hexane/raspberry, or 5) 200 μL of hexane control/raspberry (see Table 2 for equivalent doses). Twenty SWD females (5 days old) were released into each cage and allowed to oviposit on raspberries over 24 hours in an environmental chamber (25° C., 55% RH, 16:8 L:D). At the end of each trial, the raspberries were inspected under a dissecting microscope and the eggs were counted. The experiment was replicated eight times per treatment.

Zeugodacus cucurbitae = assay: Z. cucurbitae two-choice oviposition bioassay on pumpkin juice-infused agar; design: key to Behavioral activity (Z. cucurbitae oviposition group): Negative: “negative” (i.e., oviposition reduced); Neutral: “neutral” (i.e., no effect on oviposition); Positive: “positive” (i.e., oviposition increased); details: for Behavioral activity (Z. cucurbitae oviposition group): individual CFFA component; for Z. cucurbitae oviposition reduction vs control agar: individual compound, 20 mg dose
Experimental: Oviposition bioassays were conducted with mated female flies, using pumpkin juice-infused agar as an oviposition substrate. A small petri dish (60×15 mm) filled with 10 mL of 1% agar mixed in pumpkin juice was used as an oviposition substrate. The agar plates were surface-treated either with 200 μL of ethanol or 200 μL of CFFA in one of 4 doses tested (20, 2, 0.2, and 0.02 mg/200 μL of ethanol), placed into a fume hood for 10 minutes for solvent evaporation prior to use in bioassays, and positioned upside-down (i.e. treated side down) on top of the 30×30×30 cm (W×L×H) screened cage 17 cm apart from each other (i.e. one each of control and CFFA treated), allowing 20 female flies (14 to 18 day-old) to oviposit on pumpkin juice agar from the bottom through the cage screen for 24 hours. Each cage was provided with a ball of water-saturated cotton, sugar, and protein hydrolysate in separate 30 mL deli cups and two oviposition substrates-one treated with CFFA diluted in ethanol and the other treated with the ethanol control. After 24 hours, Z. cucurbitae eggs in the pumpkin agar were gently separated from the agar in water and the number of eggs were individually counted. The experiment was replicated five times per treatment. CFFA was not an effective oviposition deterrent for Z. cucurbitae which is contrary to our previous work on B. dorsalis (Roh et al., 2023a). […] CFFA components were categorized into three groups “negative” (i.e., oviposition reduced), “neutral” (i.e., no effect on oviposition), and “positive” (i.e., oviposition increased) based on bioassay outcome. Using these categories, further formulations were made to determine key bioactive CFFA components in terms of oviposition deterrence on Z. cucurbitae at the equivalent ratios and concentrations of each component found in CFFA (Zhu et al. 2018). The approach involved testing the bioactivity of the negative-component blend (4c blend) for oviposition deterrence at three different doses (2, 0.2, and 0.02 mg CFFA equivalent/agar), compared with ethanol control. Further, neutral compound is added to the negative blend i.e., ‘negative+neutral’ component blend (5c blend) to identify key compounds for oviposition deterrence. The experiment was replicated five times per treatment.

Row | SMILES | Behavioral activity (SWD oviposition group) (Drosophila suzukii (SWD) [1]) | reduced SWD oviposition (Drosophila suzukii (SWD) [1]) | SWD oviposition deterrence (Drosophila suzukii (SWD) [1]) | effect on SWD oviposition vs control (Drosophila suzukii (SWD) [1]) | eggs oviposited among all treated raspberries (Drosophila suzukii (SWD) [1]) | effect on SWD oviposition vs solvent control (Drosophila suzukii (SWD) [2]) | effect on Z. cucurbitae oviposition (Zeugodacus cucurbitae; 0.02 mg dose) | effect on Z. cucurbitae oviposition (Zeugodacus cucurbitae; 0.2 mg dose) | effect on Z. cucurbitae oviposition (Zeugodacus cucurbitae; 2 mg dose) | Behavioral activity (Z. cucurbitae oviposition group) (Zeugodacus cucurbitae) | Z. cucurbitae oviposition reduction vs control agar (Zeugodacus cucurbitae) [%]
1 | CCCCCCCC(=O)O [C8:0, caprylic acid] | Negative | not detected | maintained oviposition deterrence | almost completely inhibited oviposition | zero | significantly reduced SWD oviposition | not | maintained oviposition deterrence | maintained oviposition deterrence | Negative | 100
2 | CCCCCCCCCC(=O)O [C10:0, capric acid] | Negative | not detected | maintained oviposition deterrence | almost completely inhibited oviposition | one | significantly reduced SWD oviposition |  |  | either lost oviposition deterrence or increased oviposition | Negative | 74
